Source: ChEMBL document CHEMBL3045378, “Synthesis and evaluation of 4-amino-5-phenyl-4H-[1,2,4]-triazole-3-thiol derivatives as antimicrobial agents” (2010)
Values after ≈ are worked out from the molar mass of the structure shown.

Experiments:
Assay type in all cases: functional
Trichoderma [1] = assay: Antifungal activity against Trichoderma sp. ATCC 5248 after 24 hr by paper disk diffusion method; settings: ATCC 5248, 24 h
Aspergillus niger [2] = assay: Antifungal activity against Aspergillus niger ATCC 4578 after 24 hr by paper disk diffusion method; settings: ATCC 4578, 24 h
Trichoderma [3] = assay: Antifungal activity against Trichoderma sp. ATCC 5248 at 5 to 20 ug/ml after 24 hr by paper disk diffusion method
Saccharomyces cerevisiae [4] = assay: Antifungal activity against Saccharomyces cerevisiae 180 at 5 to 20 ug/ml after 24 hr by paper disk diffusion method
Aspergillus niger [5] = assay: Antifungal activity against Aspergillus niger ATCC 4578 at 5 to 20 ug/ml after 24 hr by paper disk diffusion method
Fusarium verticillioides [6] = assay: Antifungal activity against Fusarium verticillioides NCIM 1276 at 5 to 20 ug/ml after 24 hr by paper disk diffusion method
Saccharomyces cerevisiae [7] = assay: Antifungal activity against Saccharomyces cerevisiae 180 after 24 hr by paper disk diffusion method; settings: Saccharomyces cerevisiae, 180, 24 h
Fusarium verticillioides [8] = assay: Antifungal activity against Fusarium verticillioides NCIM 1276 after 24 hr by paper disk diffusion method; settings: NCIM 1276, 24 h
Pseudomonas aeruginosa [9] = assay: Antibacterial activity against Pseudomonas aeruginosa MTCC 3363 5 to 20 ug/ml after 24 hr by paper disk diffusion method
Bacillus subtilis [10] = assay: Antibacterial activity against Bacillus subtilis ATCC 6633 5 to 20 ug/ml after 24 hr by paper disk diffusion method
Escherichia coli [11] = assay: Antibacterial activity against Escherichia coli DH5[alpha] after 24 hr by paper disk diffusion method
Bacillus subtilis [12] = assay: Antibacterial activity against Bacillus subtilis ATCC 6633 after 24 hr by paper disk diffusion method; settings: ATCC 6633, 24 h
Pseudomonas aeruginosa [13] = assay: Antibacterial activity against Pseudomonas aeruginosa MTCC 3363 after 24 hr by paper disk diffusion method; settings: MTCC 3363, 24 h
Pseudomonas fluorescens [14] = assay: Antibacterial activity against Pseudomonas fluorescens ATCC 3458 after 24 hr by paper disk diffusion method; settings: ATCC 3458, 24 h
Escherichia coli [15] = assay: Antibacterial activity against Escherichia coli DH5[alpha] at 5 to 20 ug/ml after 24 hr by paper disk diffusion method
Pseudomonas fluorescens [16] = assay: Antibacterial activity against Pseudomonas fluorescens ATCC 3458 5 to 20 ug/ml after 24 hr by paper disk diffusion method

Compound | MIC (Trichoderma [1]) [µg/mL] | MIC (Aspergillus niger [2]) [µg/mL] | diameter of the inhibition zone (DIZ) (Trichoderma [3]) [mm] | diameter of the inhibition zone (DIZ) (Saccharomyces cerevisiae [4]) [mm] | diameter of the inhibition zone (DIZ) (Aspergillus niger [5]) [mm] | diameter of the inhibition zone (DIZ) (Fusarium verticillioides [6]) [mm] | MIC (Saccharomyces cerevisiae [7]) [µg/mL] | MIC (Fusarium verticillioides [8]) [µg/mL] | diameter of the inhibition zone (DIZ) (Pseudomonas aeruginosa [9]) [mm] | diameter of the inhibition zone (DIZ) (Bacillus subtilis [10]) [mm] | MIC (Escherichia coli [11]) [µg/mL] | MIC (Bacillus subtilis [12]) [µg/mL] | MIC (Pseudomonas aeruginosa [13]) [µg/mL] | MIC (Pseudomonas fluorescens [14]) [µg/mL] | diameter of the inhibition zone (DIZ) (Escherichia coli [15]) [mm] | diameter of the inhibition zone (DIZ) (Pseudomonas fluorescens [16]) [mm]
CC(=O)N1CCN(c2ccc(OCC3COC(Cn4ccnc4)(c4ccc(Cl)cc4Cl)O3)cc2)CC1 (centres undefined) [KETOCONAZOLE] | 5 (≈ 9.41 µM) | 5 (≈ 9.41 µM) | 25 | 18 | 16 | 20 | 5 (≈ 9.41 µM) | 5 (≈ 9.41 µM) |  |  |  |  |  |  |  | 
CO/N=C(\C(=O)N[C@@H]1C(=O)N2C(C(=O)O)=C(CSc3nc(=O)c(O)nn3C)CS[C@H]12)c1csc(N)n1 [CEFTRIAXONE] |  |  |  |  |  |  |  |  | 18 | 16 | 5 (≈ 9.02 µM) | 5 (≈ 9.02 µM) | 5 (≈ 9.02 µM) | 5 (≈ 9.02 µM) | 16 | 16
Nn1c(S)nnc1-c1ccccc1O | 12.5 (≈ 60 µM) | 12.5 (≈ 60 µM) | 16 | 16 | 16 | 16 | 12.5 (≈ 60 µM) | 12.5 (≈ 60 µM) | 16 | 16 | 12.5 (≈ 60 µM) | 12.5 (≈ 60 µM) | 12.5 (≈ 60 µM) | 12.5 (≈ 60 µM) | 16 | 16
Nn1c(Sc2ccc(Cl)cc2)nnc1-c1ccccc1 | 10 (≈ 33 µM) | 10 (≈ 33 µM) | 16 | 16 | 16 | 16 | 10 (≈ 33 µM) | 10 (≈ 33 µM) | 16 | 16 | 10 (≈ 33 µM) | 10 (≈ 33 µM) | 10 (≈ 33 µM) | 10 (≈ 33 µM) | 16 | 16
Nn1c(Sc2ccc(S(=O)(=O)Cl)cc2)nnc1-c1ccccc1 | 15 (≈ 40.9 µM) | 15 (≈ 40.9 µM) | <12 | <12 | <12 | <12 | 15 (≈ 40.9 µM) | 15 (≈ 40.9 µM) | <10 | <10 | 15 (≈ 40.9 µM) | 15 (≈ 40.9 µM) | 15 (≈ 40.9 µM) | 15 (≈ 40.9 µM) | <10 | <10
Nn1c(Sc2ccc([N+](=O)[O-])cc2[N+](=O)[O-])nnc1-c1ccccc1 | 15 (≈ 41.9 µM) | 15 (≈ 41.9 µM) | <12 | <12 | <12 | <12 | 15 (≈ 41.9 µM) | 15 (≈ 41.9 µM) | <10 | <10 | 15 (≈ 41.9 µM) | 15 (≈ 41.9 µM) | 15 (≈ 41.9 µM) | 15 (≈ 41.9 µM) | <10 | <10
Nn1c(Sc2ccc(C(Cl)(Cl)Cl)cc2)nnc1-c1ccccc1 | 5 (≈ 13 µM) | 5 (≈ 13 µM) | 22 | 16 | 14 | 18 | 5 (≈ 13 µM) | 5 (≈ 13 µM) | 16 | 14 | 5 (≈ 13 µM) | 5 (≈ 13 µM) | 5 (≈ 13 µM) | 5 (≈ 13 µM) | 14 | 14
Nn1c(Sc2ccc(Br)cc2)nnc1-c1ccccc1 | 10 (≈ 28.8 µM) | 10 (≈ 28.8 µM) | 16 | 16 | 16 | 16 | 10 (≈ 28.8 µM) | 10 (≈ 28.8 µM) | 16 | 16 | 10 (≈ 28.8 µM) | 10 (≈ 28.8 µM) | 10 (≈ 28.8 µM) | 10 (≈ 28.8 µM) | 16 | 16
CC(=O)Nn1c(S)nnc1-c1ccccc1 | 15 (≈ 64 µM) | 15 (≈ 64 µM) | <12 | <12 | <12 | <12 | 15 (≈ 64 µM) | 15 (≈ 64 µM) | <10 | <10 | 15 (≈ 64 µM) | 15 (≈ 64 µM) | 15 (≈ 64 µM) | 15 (≈ 64 µM) | <10 | <10
Nn1c(S)nnc1-c1ccccc1 | 12.5 (≈ 65 µM) | 12.5 (≈ 65 µM) | 16 | 16 | 16 | 16 | 12.5 (≈ 65 µM) | 12.5 (≈ 65 µM) | 16 | 16 | 12.5 (≈ 65 µM) | 12.5 (≈ 65 µM) | 12.5 (≈ 65 µM) | 12.5 (≈ 65 µM) | 16 | 16
